The target in one data set is SERT. The note with it: read-out: SERT binding Ki; cited from earlier work.
Another data set can be described thus: fluorescent properties. It is filed as physicochemical.
Substrate in data set [1]: NCCc1ccc(O)c(O)c1
The data set can be described thus: cells, lysate or membranes. The note with it: other: substrate KM, determined in parallel; mean [SE interval].

As to `CN(C)CCCC1(c2ccc(F)cc2)OCc2cc(-c3cccc(N)c3)ccc21` (stereo not shown) [compound 3], the Ki (commonly the dissociation constant of the complex between target and ligand, obtained from inhibition or displacement) at SERT is 10.4 nM.

In “fluorescent properties”, `CCN(CC)c1ccc2c(-c3ccc(S(=O)(=O)NCCCCCC(=O)NCCC(=O)Nc4cccc(-c5ccc6c(c5)COC6(CCCN(C)C)c5ccc(F)cc5)c4)cc3S(=O)(=O)[O-])c3ccc(=[N+](CC)CC)cc-3oc2c1` (stereo not shown) [compound 8] yielded a maximal emission wavelength of 592 nm and a maximal excitation wavelength of 570 nm.

B1: hDAT (Homo sapiens) (protein)
chain: MSKSKCSVGLMSSVVAPAKEPNAVGPKEVELILVKEQNGVQLTSSTLTNPRQSPVEAQDRETWGKKIDFLLSVIGFAVDLANVWRFPYLCYKNGGGAFLVPYLLFMVIAGMPLFYMELALGQFNREGAAGVWKICPILKGVGFTVILISLYVGFFYNVIIAWALHYLFSSFTTELPWIHCNNSWNSPNCSDAHPGDSSGDSSGLNDTFGTTPAAEYFERGVLHLHQSHGIDDLGPPRWQLTACLVLVIVLLYFSLWKGVKTSGKVVWITATMPYVVLTALLLRGVTLPGAIDGIRAYLSVDFYRLCEASVWIDAATQVCFSLGVGFGVLIAFSSYNKFTNNCYRDAIVTTSINSLTSFSSGFVVFSFLGYMAQKHSVPIGDVAKDGPGLIFIIYPEAIATLPLSSAWAVVFFIMLLTLGIDSAMGGMESVITGLIDEFQLLHRHRELFTLFIVLATFLLSLFCVTNGGIYVFTLLDHFAAGTSILFGVLIEAIGVAWFYGVGQFSDDIQQMTGQRPSLYWRLCWKLVSPCFLLFVVVVSIVTFRPPHYGAYIFPDWANALGWVIATSSMAMVPIYAAYKFCSLPGSFREKLAYAIAPEKDRELVDRGEVRQFTLRHWLKV
With B1, the Km in data set [1] was 1010[909;1120] nM.

These data come from paper PMC3525792 (Bioorganic & medicinal chemistry letters, 2012).
